Measurements as given in patent US7288258B2, “Polyepitopic protein fragments of the E6 and E7 proteins of HPV, their production and their use particularly in vaccination” (Peptide Immune Ligands, priority 1999, dated 2007).

What was measured:
Test in all cases: association of peptide with HLA molecules and stability of the complex
Details in all cases: stable complex: peptide remains bound for at least about 3 hours at 37° C.
[1] = system: HLA molecules of the A2 type; type: binding, human
Text: (§1) The different epitopes of the polyepitopic region of the predetermined protein, and delimiting the epitopic protein fragments, are preferably selected from the peptides; • binding to a predetermined molecule of MCH, particularly to a molecule of the predetermined HLA type, and this from concentrations of about 10^−6 M to about 10^−10 M in peptide for concentrations of about 10^−7 M of HLA molecules, particularly under the conditions described hereafter, • and forming a stable complex with said MCH molecule, namely particularly a complex in which said peptide remains bound to said molecule for at least about 3 hours at 37° C.
(§2) By way of illustration, the above-mentioned epitopes of the invention are selected from among the peptides adapted: • on the one hand of associating with the molecules of MCH, particularly by using the following method: • incubation (particularly for about 2 hours at 25° C., then about 15 hours at 4° C.) of the peptide in the presence of MCH molecules, from the lysis of human or animal cells, or purified particularly by affinity chromatography from human or animal cell lines, • trapping complexes formed during the preceding step on a solid support covered with a first antibody, particularly monoclonal, recognizing specifically the CMH molecules in their configuration dependent on their connection to said peptide, • addition to the preceding solid support of a second marked antibody, particularly by coupling to a radioactive, enzymatic or fluorescent marker, said marked antibody recognizing specifically either the long chains of MCH in their configuration dependent on their connection to the peptide, or the short chain of MCH or the β2-microglobulin binding specifically to the different long chains of the MCH in their above-mentioned configuration, • detection, after rinsing of the solid support, of the possible presence of the second marked antibody remaining fixed on the solid support, signifying an association effect between the molecules of MCH and the peptide studied, • and, on the other hand, forming a complex with said MCH molecules, whose stability can be evaluated by the use of a method of following according to time the connection established between the peptide and the MCH molecules, this method being preferably carried out according to a protocol identical to the preceding method, but in which the incubation step of the peptide in the presence of MCH molecules on the solid support covered with said first antibody, is preceded by a preliminary step of eliminating the free peptide adapted that may be present in the reaction medium, particularly by washing the solid support, said incubation step being carried out (preferably at a temperature of 37° C.) for variable times of 1 hours, 3 hours, 5 hours, 24 hours and 48 hours.
(§3) As mentioned above, the epitopes of the invention should be recognized by the T cells in association with the MCH molecules and associate with these latter, particularly in the framework of the practice of the recognition test described above. This association can be weak (detectable at concentrations of peptide analogs of the order of 10^−4 to 10^−5 M), intermediate (detectable at concentrations of peptide analogs of the order of 10^−6 to 10^−7 M), or strong (detectable at concentrations of peptide analogs of the order of 10^−8 to 10^−9 M). The peptides associated with the MCH molecules in the scope of the present invention are preferably adapted to bond during at least about 3 hours, to said MCH molecules.

[2] = system: HLA molecules of the A24 type; type: binding, human
Text: as §1, §2, §3

[3] = system: HLA molecules of the B35 type; type: binding, human
Text: as §1, §2, §3

[4] = system: HLA molecules of the B44 type; type: binding, human
Text: as §1, §2, §3

[5] = system: HLA molecules of the B51 type; type: binding, human
Text: as §1, §2, §3

[6] = molecular target: T1, HLA molecules of the B7 type (Homo sapiens, UniProt P01889); type: binding
T1 construct: endogenous in cells
T1 sequence (P01889 25-362): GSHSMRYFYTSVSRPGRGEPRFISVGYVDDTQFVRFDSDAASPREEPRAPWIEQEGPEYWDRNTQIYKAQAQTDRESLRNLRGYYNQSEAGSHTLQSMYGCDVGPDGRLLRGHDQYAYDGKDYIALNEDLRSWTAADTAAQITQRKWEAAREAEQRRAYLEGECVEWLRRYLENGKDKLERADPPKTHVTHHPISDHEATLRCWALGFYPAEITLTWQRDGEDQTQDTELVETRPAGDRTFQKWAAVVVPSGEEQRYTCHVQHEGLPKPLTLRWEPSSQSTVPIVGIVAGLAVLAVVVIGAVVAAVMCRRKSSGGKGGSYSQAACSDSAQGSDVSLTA
T1 sequence (P61769 21-119, further chain): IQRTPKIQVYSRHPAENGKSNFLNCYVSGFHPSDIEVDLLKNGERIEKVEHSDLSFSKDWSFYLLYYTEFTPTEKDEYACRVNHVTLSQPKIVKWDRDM
Text: as §1, §2, §3

[7] = system: HLA molecules of the B27 type; type: binding, human
Text: as §1, §2, §3

[8] = system: HLA molecules of the A11 type; type: binding, human
Text: as §1, §2, §3

[9] = molecular target: T2, HLA molecules of the A3 type (Homo sapiens, UniProt P04439); type: binding
T2 construct: endogenous in cells
T2 sequence (P61769 21-119): as the sequence (P61769 21-119, further chain) above
T2 sequence (P04439 25-365): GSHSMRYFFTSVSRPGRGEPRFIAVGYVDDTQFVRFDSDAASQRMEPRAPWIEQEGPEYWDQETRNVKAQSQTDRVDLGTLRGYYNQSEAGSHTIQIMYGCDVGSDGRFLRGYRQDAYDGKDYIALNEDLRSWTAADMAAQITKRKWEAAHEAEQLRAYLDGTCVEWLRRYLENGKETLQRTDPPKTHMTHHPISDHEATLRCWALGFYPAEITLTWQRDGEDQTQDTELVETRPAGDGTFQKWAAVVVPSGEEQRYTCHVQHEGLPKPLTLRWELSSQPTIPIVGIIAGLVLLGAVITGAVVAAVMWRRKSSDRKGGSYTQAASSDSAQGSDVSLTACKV
Text: as §1, §2, §3

[10] = system: HLA molecules of the A29 type; type: binding, human
Text: as §1, §2, §3

[11] = system: HLA molecules of the B8 type; type: binding, human
Text: as §1, §2, §3

TLGIVCPI (Human Papillomavirus)
binding stably to HLA molecules of the A2 type [1]: binding stably

IYKQSQHM (listed as Homo sapiens)
binding stably to HLA molecules of the A24 type [2]: binding stably

TPTLHEYML (Human Papillomavirus)
binding stably to HLA molecules of the B35 type [3]: binding stably

GDTPTLHEY (Human Papillomavirus)
binding stably to HLA molecules of the B44 type [4]: binding stably

TIHDIILRCV
binding stably to HLA molecules of the A2 type [1]: binding stably

KPLCDLLI (Human Papillomavirus)
binding stably to HLA molecules of the B35 type [3]: binding stably | binding stably to HLA molecules of the B51 type [5]: binding stably | binding stably to HLA molecules of the B7 type [6]: binding stably

QRFHNIRGRW (Human Papillomavirus)
binding stably to HLA molecules of the B27 type [7]: binding stably

QLCTELQTTI (Human Papillomavirus)
binding stably to HLA molecules of the A2 type [1]: binding stably

NIVTFCCK (Human Papillomavirus)
binding stably to HLA molecules of the A11 type [8]: binding stably | binding stably to HLA molecules of the A3 type [9]: binding stably

RREVYDFAFR (Human Papillomavirus)
binding stably to HLA molecules of the B27 type [7]: binding stably

RRPILTIITL (listed as Homo sapiens)
binding stably to HLA molecules of the B27 type [7]: binding stably

LEQQYNKPL
binding stably to HLA molecules of the A29 type [10]: binding stably | binding stably to HLA molecules of the B44 type [4]: binding stably

TLEQQYNK (Human Papillomavirus)
binding stably to HLA molecules of the A11 type [8]: binding stably | binding stably to HLA molecules of the A3 type [9]: binding stably

RPILTIITL
binding stably to HLA molecules of the B35 type [3]: binding stably | binding stably to HLA molecules of the B7 type [6]: binding stably

YDFAFRDL (Human Papillomavirus)
binding stably to HLA molecules of the A29 type [10]: binding stably | binding stably to HLA molecules of the B44 type [4]: binding stably

KLPQLCTEL
binding stably to HLA molecules of the A2 type [1]: binding stably

CYSLYGTTL (Human Papillomavirus)
binding stably to HLA molecules of the A24 type [2]: binding stably

IRVEGNLRVEY (listed as Homo sapiens)
binding stably to HLA molecules of the B27 type [7]: binding stably

SYGFRLGFL (listed as Homo sapiens)
binding stably to HLA molecules of the A24 type [2]: binding stably

RFHNIRGRW (Human Papillomavirus)
binding stably to HLA molecules of the A24 type [2]: binding stably

IILECVYCK (Human Papillomavirus)
binding stably to HLA molecules of the A11 type [8]: binding stably

FRDLCIVYR (Human Papillomavirus)
binding stably to HLA molecules of the A11 type [8]: binding stably | binding stably to HLA molecules of the A3 type [9]: binding stably

NTFRHSVVV
binding stably to HLA molecules of the B8 type [11]: binding stably

EYLDDRNTF
binding stably to HLA molecules of the A24 type [2]: binding stably

FAFRDLCIV (Human Papillomavirus)
binding stably to HLA molecules of the A2 type [1]: binding stably | binding stably to HLA molecules of the B35 type [3]: binding stably | binding stably to HLA molecules of the B51 type [5]: binding stably | binding stably to HLA molecules of the B7 type [6]: binding stably

VRVCACPGR (listed as Homo sapiens)
binding stably to HLA molecules of the B27 type [7]: binding stably

YMLDLQPETT
binding stably to HLA molecules of the A2 type [1]: binding stably

LLGRNSFEV
binding stably to HLA molecules of the A2 type [1]: binding stably

STPPPGTRV (listed as Homo sapiens)
binding stably to HLA molecules of the A2 type [1]: binding stably

LEDSSGNLL (listed as Homo sapiens)
binding stably to HLA molecules of the B44 type [4]: binding stably

LECVYCKQQL (Human Papillomavirus)
binding stably to HLA molecules of the A29 type [10]: binding stably | binding stably to HLA molecules of the B44 type [4]: binding stably

RVEGNLRVEY (listed as Homo sapiens)
binding stably to HLA molecules of the A2 type [1]: binding stably

LRVEYLDDR (listed as Homo sapiens)
binding stably to HLA molecules of the B27 type [7]: binding stably

PEEKQRHL (Human Papillomavirus)
binding stably to HLA molecules of the B44 type [4]: binding stably

SDCTTIHYNY (listed as Homo sapiens)
binding stably to HLA molecules of the B44 type [4]: binding stably

GSYGFRLGFL (listed as Homo sapiens)
binding stably to HLA molecules of the B35 type [3]: binding stably

LLMGTLGIV
binding stably to HLA molecules of the A2 type [1]: binding stably

SEYRHYCY (Human Papillomavirus)
binding stably to HLA molecules of the A29 type [10]: binding stably | binding stably to HLA molecules of the B44 type [4]: binding stably

VEYLDDRNTF (listed as Homo sapiens)
binding stably to HLA molecules of the B44 type [4]: binding stably

VEGNLRVEY (listed as Homo sapiens)
binding stably to HLA molecules of the B44 type [4]: binding stably

KKQRFHNIR (Human Papillomavirus)
binding stably to HLA molecules of the B27 type [7]: binding stably

FRHSVVVPY (listed as Homo sapiens)
binding stably to HLA molecules of the B27 type [7]: binding stably

PPGTRVRAM (listed as Homo sapiens)
binding stably to HLA molecules of the B35 type [3]: binding stably

GLAPPQHLIRV
binding stably to HLA molecules of the A2 type [1]: binding stably

ALNKMFCQL (listed as Homo sapiens)
binding stably to HLA molecules of the B35 type [3]: binding stably

APPQHLIRV
binding stably to HLA molecules of the B7 type [6]: binding stably

TELQTTIHDI (Human Papillomavirus)
binding stably to HLA molecules of the A29 type [10]: binding stably | binding stably to HLA molecules of the B44 type [4]: binding stably

RPRKLPQL (Human Papillomavirus)
binding stably to HLA molecules of the B35 type [3]: binding stably | binding stably to HLA molecules of the B7 type [6]: binding stably

TRVRAMAIYK (listed as Homo sapiens)
binding stably to HLA molecules of the B27 type [7]: binding stably

TFRHSVVV (listed as Homo sapiens)
binding stably to HLA molecules of the A24 type [2]: binding stably

NYMCNSSCM (listed as Homo sapiens)
binding stably to HLA molecules of the A24 type [2]: binding stably

IVYRDGNPY
binding stably to HLA molecules of the A11 type [8]: binding stably | binding stably to HLA molecules of the A3 type [9]: binding stably

AEPDRAHY (Human Papillomavirus)
binding stably to HLA molecules of the A29 type [10]: binding stably | binding stably to HLA molecules of the B44 type [4]: binding stably

TYQGSYGFRL
binding stably to HLA molecules of the A24 type [2]: binding stably

LPQLCTEL (Human Papillomavirus)
binding stably to HLA molecules of the B51 type [5]: binding stably

GRNSFEVR (listed as Homo sapiens)
binding stably to HLA molecules of the B27 type [7]: binding stably

VYDFAFRDL (Human Papillomavirus)
binding stably to HLA molecules of the A24 type [2]: binding stably

DKKQRFHNI (Human Papillomavirus)
binding stably to HLA molecules of the B8 type [11]: binding stably

LEDLLMGTL (Human Papillomavirus)
binding stably to HLA molecules of the A29 type [10]: binding stably | binding stably to HLA molecules of the B44 type [4]: binding stably

CVYCKQQL (Human Papillomavirus)
binding stably to HLA molecules of the B8 type [11]: binding stably

RVRAMAIYK (listed as Homo sapiens)
binding stably to HLA molecules of the A3 type [9]: binding stably

EPDRAHYNIV (Human Papillomavirus)
binding stably to HLA molecules of the B35 type [3]: binding stably | binding stably to HLA molecules of the B7 type [6]: binding stably

TYSPALNKMF
binding stably to HLA molecules of the A24 type [2]: binding stably

ITLEDSSGN (listed as Homo sapiens)
binding stably to HLA molecules of the A2 type [1]: binding stably

IVCPICSQK
binding stably to HLA molecules of the A11 type [8]: binding stably | binding stably to HLA molecules of the A3 type [9]: binding stably
